Patent US11208642B2, “Microbial syringol utilization” (Alliance for Sustainable Energy, LLC, priority 2018, dated 2021)

Columns and labels:
GcoA-F169A and GcoB = target: T1, GcoA-F169A and GcoB (Amycolatopsis sp., UniProt P0DPQ7, F169A/H210Q); assay: Stoichiometric end-point analysis of reactants and products (HPLC, formaldehyde assay); format: biochemical; details: for Formaldehyde produced: 100 μM substrate, 210 μM O2, reaction to completion
T1 construct: GST (N, cleaved yes); made in house; host or cells: E. coli Rosetta 2 (DE3)
Procedure: FIG. 3 depicts quantitative analyses of substrate consumption and product generation indicate nearly complete coupling of NADH/O2 consumption to substrate O-demethylation for guaiacol, and progressively more uncoupling for syringol and 3MC. NADH (200 μM) and guaiacol, syringol, or 3MC (100 or 200 μM) were incubated in air with 0.2 μM GcoA-F169A and GcoB (each) (25 mM HEPES, 50 mM NaCl, pH 7.5, 25° C., 210 μM O2). Reactants and products were quantified when the UV/vis spectra ceased changing and the reaction deemed complete. The total NADH consumed is compared above to the amounts of formaldehyde and de-methylated aromatic compound produced. Pyrogallol, the O-demethylated product of 3MC, was not detected under any condition. Error bars represent ±1 standard deviation from three or more independent measurements.
Since both methoxy groups of syringol can potentially serve as substrates, we examined syringol turnover in a number of ways. Syringol (100 μM) was first incubated with NADH (200 μM) and excess dissolved O2 (210 μM), and the reaction with the GcoA-F169A mutant allowed to go to completion. As with the guaiacol reaction, all of the NADH and syringol were consumed (FIG. 3), implying that syringol undergoes two O-demethylations, producing 3MC and then pyrogallol (210 μM O2, 25 mM HEPES, 50 mM NaCl, pH 7, 25° C.).
The stoichiometric analysis was next repeated with NADH and syringol present in equal concentrations (200 μM each; 210 μM O2), conditions expected to permit at most half of the available methoxy groups to react. All of the NADH and 150±6 μM of syringol were consumed; 200±3 μM formaldehyde and 120±2 μM 3MC were generated (Table 1, FIG. 3).
Formaldehyde determination. A colorimetric assay using tryptophan can be used to quantify the amount of formaldehyde produced in F169 GcoA/B reactions with guaiacol, syringol, or 3MC. 0.2 μM each of F169 GcoA mutants and GcoB were dissolved in air-saturated buffer (25 mM HEPES, 50 mM NaCl) in a cuvette at pH 7.5, 25° C. 100 μg/mL catalase was added to each reaction to capture any H2O2 formed during the uncoupled reaction. Two hundred μM NADH was added and the background rate recorded. One hundred (guaiacol, syringol, or 3MC) or 200 (syringol) μM of substrate was then added and the reaction monitored until there was no more change, due to either substrate, NADH or O2 depletion, whichever occurred first. 200 μL of the reaction was then quenched by adding 200 μL of a 0.1% tryptophan solution in 50% ethanol and 200 μL of 90% sulfuric acid. Upon thorough mixing, 40 μL of 1% FeCl3 was added. The solution was then incubated in a heating block for 90 min at 70° C. After cooling, the absorbance was read at 575 nm and the concentration of formaldehyde was calculated by using ε575 nm=4.2 mM^−1 cm^−1, obtained with formaldehyde as a standard. A negative control included everything but the substrate and was used as a baseline.
Analyte analysis of the above end-point reactions (100 μM guaiacol, syringol, or 3MC, or 200 μM syringol) was performed on an Agilent 1100 LC system (Agilent Technologies) equipped with a G1315B diode array detector (DAD). Each sample and standard was injected at a volume of 10 μL onto a Symmetry C18 column 5 μm, 4.6×150 mm column (Waters). The column temperature was maintained at 30° C. and the buffers used to separate the analytes of interest was 0.01% TFA in water (A)/acetonitrile (B). The separation was carried out using a gradient program of: (A)=99% and (B)=1% at time t=0 min; (A)=99% and (B)=1% at time t=2 min, (A)=50% and (B)=50% at t=8 min; (A)=1% and (B)=99% at t=8.01 min; (A)=99% and (B)=1% at t=10.01 min; (A)=99% and (B)=1% at t=11 min. The flow rate was held constant at 1.5 mL min^−1, resulting in a run time of 11 minutes. DAD wavelengths of 210 and 325 nm were used for analysis of the analytes of interest. Standard curves were generated using 0-500 μM of guaiacol, syringol, 3MC, catechol, and pyrogallol. […]

GcoA = GcoA (Amycolatopsis sp., UniProt P0DPQ7, H210Q); assay: Syringol binding to wild-type GcoA (KD)
Text: The syringol binding mode can be modulated by active site engineering. Guaiacol assumes a productive orientation in the active site of GcoA due to the action of amino acid side chains that create a tight-fitting hydrophobic pocket. The closest contact is with GcoA-F169, which forms a hydrophobic interaction with the C6 carbon on the aromatic ring of guaiacol. […] We identified that the mutation of GcoA-F169 to a smaller residue may relieve the apparent steric clash between it and the bound ligand in the active site, allowing syringol to adopt a productive conformation. To test this hypothesis, GcoA-F169 was substituted with several alternative amino acids (A, S, H, V, I, and L) with the aim of introducing productive syringol turnover while retaining reactivity with guaiacol.

[1] = 200 μM syringol, 200 μM NADH, 210 μM O2

T1 sequence (P0DPQ7 whole entry F169A/H210Q): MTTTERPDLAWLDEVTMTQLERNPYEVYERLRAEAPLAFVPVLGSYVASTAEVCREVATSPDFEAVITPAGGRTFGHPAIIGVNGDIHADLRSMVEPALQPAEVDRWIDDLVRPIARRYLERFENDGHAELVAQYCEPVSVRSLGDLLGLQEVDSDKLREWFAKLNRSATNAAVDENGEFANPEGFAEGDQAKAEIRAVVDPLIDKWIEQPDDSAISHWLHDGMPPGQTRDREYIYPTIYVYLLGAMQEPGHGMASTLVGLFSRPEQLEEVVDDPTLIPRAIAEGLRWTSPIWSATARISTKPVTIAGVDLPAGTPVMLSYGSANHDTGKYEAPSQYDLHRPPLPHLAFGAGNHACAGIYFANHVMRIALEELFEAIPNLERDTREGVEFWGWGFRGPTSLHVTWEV
Sequence of GcoA (P0DPQ7 whole entry H210Q): as the sequence (P0DPQ7 whole entry F169A/H210Q) above, with A169F counted along it

Structure (SMILES)	Formaldehyde produced (GcoA-F169A and GcoB; 200 μM NADH)	Singly demethylated intermediate 3MC observed at end of reaction (GcoA-F169A and GcoB; 100 μM syringol, 200 μM NADH, 210 μM O2) [µM]	3MC generated (GcoA-F169A and GcoB; [1]) [µM]	Formaldehyde generated (GcoA-F169A and GcoB; [1]) [µM]	Syringol consumed (GcoA-F169A and GcoB; [1]) [µM]	Pyrogallol detection (GcoA-F169A and GcoB; any of the conditions used)	Kd (GcoA) [µM]
COc1cccc(O)c1O [3MC, 3-methoxycatechol]	approximately 100 μM						
COc1cccc(OC)c1O [syringol, 2,6-dimethoxyphenol]	170 ± 10 µM	50 ± 4	120 ± 2	200 ± 3	150 ± 6	not detected	2.8 ± 0.4
